Details of this data set: species or system female CD1 mice. The settings on record: mouse, in vivo. The method, then: In accordance with the procedure outlined in Canc. Res. 47: 3707-3711, female CD1 mice (obtained from Charles River Laboratories) were inoculated intraperitoneally with 10^6 S 180 cells in 100 microliters of phosphate buffered saline (PBS). Controls received PBS only. Both tumor and control mice were divided into three groups of ten mice per group. Rosin and technical grade abietic acid were each dissolved in ethanol at a concentration of 200 mg/ml which was diluted with 10% newborn calf serum in PBS to a ratio of 1:20 to form respective suspensions. Untreated groups (both tumor and control mice) were inoculated intraperitoneally with 1 ml of vehicle alone while […] and the technical grade abietic acid treated groups (both tumor and control) were intraperitoneally inoculated with 1 ml (10 mg) of the technical grade abietic acid suspension, the doses being administered immediately, and thereafter on the third, sixth and ninth days. Data from animals which expired within two hours of any inoculation (at zero, three, six and nine days) were discarded. […]

We go through 1 substance from patent US5248696A, “Composition and method for treating tumors” (World Research Institute for Science and Technology, Inc., priority 1991, dated 1993).

Regarding rosin, the adipose tissue deposition result is reported as “increased deposition of adipose tissue”.
